# Test results published in ChEMBL document CHEMBL1201862, “PubChem BioAssay data set” (2004).
#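 Following 48 hours of exposure in 96-well plates, responses at five concentrations were used to interpolate endpoints linearly. GI50 is the concentration that inhibits growth by half.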 Active and inactive are the calls of the source. Cut-off read from the data, not from the text of the source: active = GI50 up to about 1.1 µM and inactive = higher.
# Tests used:
# Assay in all cases: NCI-60 cell line screen, 48 h
# [1] = tested on: KM-20L2
# [2] = tested on: SNB-78
# [3] = tested on: XF498
# [4] = tested on: DLD-1
# [5] = tested on: MDA-MB-231
# [6] = tested on: DU-145
# [7] = tested on: M19-MEL
# [8] = tested on: HOP-18
Structure (SMILES),GI50 [5],GI50 [6],also measured
[O-]c1c2c(nn1-c1ccc(F)cc1)c1ccccc1c[n+]2Cc1ccccc1,–,–,GI50 [1]: 11.6 µM (inactive); GI50 [2]: 1.96 µM (inactive); GI50 [3]: 19.2 µM (inactive); GI50 [4]: 11 µM (inactive)
O=C1c2ccccc2-c2nnc(-c3ccc(Cl)cc3)cc21,> 10 µM (inactive),> 10 µM (inactive),–
CCSC(=O)N1c2ccc(OC)cc2C=CC1C#N (configuration not stated),0.00589 µM (active),0.00168 µM (active),GI50 [7]: < 0.01 µM (active); GI50 [1]: < 0.01 µM (active); GI50 [2]: 51.8 µM (inactive); GI50 [3]: < 0.01 µM (active); GI50 [4]: < 0.01 µM (active)
CN(C)c1ccc(C=c2c3ccccc3n3c2c2ccccc2[n+]3C)cc1,0.877 µM (active),1.3 µM (inactive),–
CC1CCCCNC1=S (configuration not stated),> 10 µM (inactive),> 10 µM (inactive),–
CCOC(=O)O/C(=C\c1ccc(OC)cc1)c1c(OC(=O)OCC)n(C(=O)OCC)c2ccccc12,18.5 µM (inactive),42.2 µM (inactive),–
Cn1c2ccccc2n2c(=O)c3cc([N+](=O)[O-])ccc3c(C#N)c12,–,> 100 µM (inactive),–
Cc1cc(N(CCC#N)CCC#N)ccc1/C=C1\SC(=S)NC1=O,> 100 µM (inactive),> 100 µM (inactive),–
CC(=O)NC1C(OCc2ccccc2)OC(CO)C(O)C1OC(C)C(=O)N[C@@H](C)C(=O)N[C@H](CCC(=O)OCCNc1c2ccccc2nc2cccc([N+](=O)[O-])c12)C(N)=O (some centres not stated),–,–,GI50 [1]: 0.000175 µM (active); GI50 [8]: 0.000354 µM (active); GI50 [2]: 0.0252 µM (active); GI50 [4]: 0.00139 µM (active)
O=C1/C(=C/c2cccc([N+](=O)[O-])c2)N=C(c2ccccc2)N1c1nc2ccc(Sc3ccccc3)cc2[nH]1,93.1 µM (inactive),–,–
NC(CCCCNC(=O)C(Cc1ccccc1)NC(=O)OCc1ccccc1)C(=O)NC(CCCCNC(=O)C(Cc1ccccc1)NC(=O)OCc1ccccc1)C(=O)NC(CCCCNC(=O)C(Cc1ccccc1)NC(=O)OCc1ccccc1)C(=O)NC(CCCCNC(=O)C(Cc1ccccc1)NC(=O)OCc1ccccc1)C(=O)NC(CCCCNC(=O)C(Cc1ccccc1)NC(=O)OCc1ccccc1)C(=O)NC(CCCCNC(=O)C(Cc1ccccc1)NC(=O)OCc1ccccc1)C(=O)O (configuration not stated),> 100 µM (inactive),> 100 µM (inactive),–
O=P(O)(Cc1ccccc1)c1ccccc1-c1ccccc1,> 100 µM (inactive),> 100 µM (inactive),–
COc1ccc(OC)c(C2CCc3nc4nc(N)nc(N)c4cc3C2)c1 (configuration not stated),2.35 µM (inactive),5.66 µM (inactive),–
C/C=C1/CN2CC[C@@H]3c4ccccc4N4[C@H](C(=O)OC)[C@H]1C[C@H]2[C@]34/C=C/C1=COC[C@@H]2[C@H]1C[C@H]1c3c(c4ccccc4n3C)C[C@@H]2N1C,4.02 µM (inactive),5.12 µM (inactive),–
O=C1/C(=C\c2ccccc2)c2ccccc2N1Cc1ccccc1,6.89 µM (inactive),12.4 µM (inactive),–
[N-]=[N+]=NC[C@H]1OCO[C@H](CN=[N+]=[N-])[C@H]2OCCOCCOc3ccccc3OCCOCCO[C@@H]21,> 100 µM (inactive),> 100 µM (inactive),–
CO[C@@H]1C[C@H]2[C@@H]3CC[C@H]([C@H](C)CO)[C@@]3(C)CC[C@@H]2[C@@]2(C)CC[C@H]3C[C@]312,31.6 µM (inactive),> 100 µM (inactive),–
C=C1CC2CCCC12C=O (configuration not stated),> 10 µM (inactive),> 10 µM (inactive),–
O=c1nc2n(c3nsnc13)CCO2,–,–,GI50 [7]: > 100 µM (inactive); GI50 [1]: > 100 µM (inactive); GI50 [3]: > 100 µM (inactive); GI50 [4]: > 100 µM (inactive)
CSc1nc2c(ncn2C2OC(CO)C(O)C(O)C2O)c(=O)n1C (configuration not stated),–,–,GI50 [7]: > 100 µM (inactive); GI50 [1]: > 100 µM (inactive); GI50 [8]: > 88.9 µM (inactive); GI50 [2]: > 100 µM (inactive); GI50 [3]: > 100 µM (inactive); GI50 [4]: > 100 µM (inactive)

Structure (SMILES),GI50 [5],GI50 [6],also measured
COC(OC)(c1ccccc1)C(Br)Br,74.5 µM (inactive),> 100 µM (inactive),–
CCOC(=O)CC[C@H](NC(=O)N[C@H](C)c1ccccc1)C(=O)OCC,28.6 µM (inactive),83.2 µM (inactive),–
Brc1ccc2c([C@H]3CN[C@@H](c4c[nH]c5cc(Br)ccc45)CN3)c[nH]c2c1,1.8 µM (inactive),2.96 µM (inactive),–
CN(CCNC(=O)c1c[nH]c2c1Cc1ccccc1-2)CCNC(=O)c1c[nH]c2c1Cc1ccccc1-2,28.6 µM (inactive),60.1 µM (inactive),–
NS(=O)(=O)c1ccc(NNc2c3ccccc3nc3c(C(=O)Nc4ccc(S(=O)(=O)Nc5ncccn5)cc4)cccc23)cc1,> 25 µM (inactive),> 25 µM (inactive),–
C=C(Br)CN(C#N)CC(=C)Br,> 100 µM (inactive),> 100 µM (inactive),–
Cn1c(=O)c2ccccc2c2nc3ccccc3nc21,–,–,GI50 [7]: > 100 µM (inactive); GI50 [1]: > 100 µM (inactive); GI50 [2]: 68.7 µM (inactive)
O=C1CC(CC(O)[C@@H]2CCCC[C@@H]2O)CC(=O)N1c1ccccc1 (some centres not stated),> 100 µM (inactive),> 100 µM (inactive),–
O=c1n(C2CCCCC2)c(=C(Cl)Cl)c(=C(Cl)Cl)n1C1CCCCC1,–,–,GI50 [7]: > 100 µM (inactive); GI50 [1]: > 100 µM (inactive); GI50 [8]: > 100 µM (inactive); GI50 [2]: 85.1 µM (inactive); GI50 [3]: > 100 µM (inactive); GI50 [4]: > 100 µM (inactive)
NNC(=O)c1c(SCc2ccccc2)nc2c3ccccc3ccn12,29.4 µM (inactive),23.9 µM (inactive),–
c1csc(-c2ccsc2-c2ccsc2)c1,> 100 µM (inactive),> 100 µM (inactive),–
CC(C)=CC1CC(=[N+]=[N-])C(=O)C1(C)C (configuration not stated),–,–,GI50 [7]: > 100 µM (inactive); GI50 [1]: > 100 µM (inactive); GI50 [8]: > 100 µM (inactive); GI50 [2]: > 100 µM (inactive); GI50 [3]: > 100 µM (inactive); GI50 [4]: > 100 µM (inactive)
CO[C@H]1C=CO[C@@]2(C)Oc3c(C)c(O)c4c(O)c(c(CN5CCN(C)CC5)c(O)c4c3C2=O)NC(=O)/C(C)=C\C=C[C@H](C)[C@H](O)C(C)[C@@H](O)C(C)[C@H](OC(C)=O)[C@@H]1C (some centres not stated),34.4 µM (inactive),34.8 µM (inactive),–
NCCC1([N+](=O)[O-])C=CN=CC1 (configuration not stated),> 100 µM (inactive),> 100 µM (inactive),–
CCC1CN(C(=O)c2ccccc2)C(Cc2c[nH]c3ccccc23)C(=O)C1CC(=O)OC (configuration not stated),–,> 100 µM (inactive),–
C#Cc1ccccc1C(=O)OC,–,–,GI50 [1]: > 100 µM (inactive); GI50 [8]: > 100 µM (inactive); GI50 [3]: > 100 µM (inactive); GI50 [4]: > 100 µM (inactive)
CN1CCCC2[C@@H]3CCC4c5nonc5CC[C@]4(C)C3CC[C@@]21C (some centres not stated),–,–,GI50 [7]: 63.8 µM (inactive); GI50 [1]: 23.3 µM (inactive); GI50 [8]: > 100 µM (inactive); GI50 [2]: > 100 µM (inactive); GI50 [3]: 24.4 µM (inactive); GI50 [4]: 51.1 µM (inactive)
COc1ccccc1CNCc1nc2ccccc2[nH]1,> 100 µM (inactive),> 100 µM (inactive),–
CCOCC(=O)N[C@H]1CCc2cc(OC(=O)COCC)c(OC)c(OC)c2-c2ccc(SC)c(=O)cc21,0.0274 µM (active),0.0222 µM (active),–
Cn1c2c3ccc(Cl)cc3nc-2c(Cl)c2ccccc21,23.7 µM (inactive),15.1 µM (inactive),–

Structure (SMILES),GI50 [5],GI50 [6],also measured
Cc1ccc(S(=O)(=O)N(CCN)c2cc3c4c(c2)Oc2cccc5c2C4c2c(cccc2O3)O5)cc1,17.9 µM (inactive),–,–
Cc1cc(O)cc(O)c1/N=N/c1ccc([N+](=O)[O-])cc1,14.8 µM (inactive),22.9 µM (inactive),–
Cc1ccc(S(=O)(=O)NC(C(=O)O)C(C)C)cc1 (configuration not stated),> 100 µM (inactive),> 100 µM (inactive),–
Cn1c(SCc2c[nH]c3ccccc23)nnc1-c1ccc(Cl)cc1Cl,10.5 µM (inactive),17.6 µM (inactive),–
COc1cc2c3c(cc(Cl)nc3c1OC)C(=O)C(=O)N2,1.94 µM (inactive),17 µM (inactive),–
CCOC(=O)C1=C(O)C2C3CC4C2C(O)=C(C(=O)OCC)C2C1C3C42 (configuration not stated),> 100 µM (inactive),> 100 µM (inactive),–
CC1CCC2(CC1)NN=c1s/c(=C\c3ccc(O)cc3)c(=O)n1N2 (configuration not stated),–,–,GI50 [7]: > 100 µM (inactive); GI50 [1]: > 100 µM (inactive); GI50 [8]: > 100 µM (inactive); GI50 [2]: > 100 µM (inactive); GI50 [3]: > 100 µM (inactive); GI50 [4]: > 100 µM (inactive)
C#CCNC(CS)C(=O)O (configuration not stated),> 100 µM (inactive),> 100 µM (inactive),–
O=NN1C(c2ccccc2)C2CCCC(C2=O)C1c1ccccc1 (configuration not stated),–,–,GI50 [7]: 18.9 µM (inactive); GI50 [1]: 16 µM (inactive); GI50 [8]: 8.73 µM (inactive); GI50 [2]: 40.3 µM (inactive); GI50 [3]: 13.6 µM (inactive); GI50 [4]: 43.3 µM (inactive)
Cc1nn(C(=O)Cc2ccccc2)c2c1C(c1ccc3ccccc3c1O)SC(=N)N2 (configuration not stated),> 100 µM (inactive),> 100 µM (inactive),–
CNC(=S)N(C)C(=S)Nn1c(=O)c(C)nn(C)c1=S,–,–,GI50 [7]: > 100 µM (inactive); GI50 [1]: > 100 µM (inactive); GI50 [8]: > 100 µM (inactive); GI50 [2]: > 100 µM (inactive); GI50 [4]: > 100 µM (inactive)
CN1CCOC1(C)CO (configuration not stated),> 100 µM (inactive),–,–
CCC(C)[C@@H](NC1=C(Cl)C(=O)c2c(O)ccc(O)c2C1=O)C(=O)OC (some centres not stated),2.52 µM (inactive),5.19 µM (inactive),–
O=[N+]([O-])c1ccc(/C=C/c2ccc(/N=N/c3ccc(/C=C/c4ccc([N+](=O)[O-])cc4S(=O)(=O)O)c(S(=O)(=O)O)c3)cc2S(=O)(=O)O)c(S(=O)(=O)O)c1,–,–,GI50 [7]: > 100 µM (inactive); GI50 [8]: > 74.6 µM (inactive); GI50 [2]: > 83.6 µM (inactive); GI50 [3]: > 78 µM (inactive); GI50 [4]: > 100 µM (inactive)
CCCC1CCC(=C2C(=O)CCC2=O)O1 (configuration not stated),> 100 µM (inactive),> 100 µM (inactive),–
CN(CCCCCl)P(=O)(OCc1ccc([N+](=O)[O-])o1)OC[C@H]1O[C@@H](n2cc(F)c(=O)[nH]c2=O)C[C@@H]1O (some centres not stated),12.9 µM (inactive),0.569 µM (active),–
C[O+]=C1C=CC(=C2SC(c3ccccc3)(c3ccccc3)c3ccccc32)C=C1.[O-][Cl+3]([O-])([O-])[O-],18.5 µM (inactive),26.2 µM (inactive),–
Oc1ccc2ccccc2c1Cc1c(O)ccc2ccccc12,18.2 µM (inactive),17.9 µM (inactive),–
O=CN/C=C/c1ccccc1O,–,> 100 µM (inactive),GI50 [7]: > 100 µM (inactive); GI50 [1]: > 100 µM (inactive); GI50 [8]: > 100 µM (inactive); GI50 [2]: > 100 µM (inactive); GI50 [4]: > 100 µM (inactive)
Nc1nc2[nH]c(=O)cnc2c(=O)[nH]1 [ISOXANTHOPTERIN],–,–,GI50 [7]: > 85.1 µM (inactive); GI50 [1]: > 72.4 µM (inactive); GI50 [8]: > 5.81 µM (inactive); GI50 [2]: > 125 µM (inactive); GI50 [3]: 10.6 µM (inactive); GI50 [4]: > 125 µM (inactive)
